Test results as given in patent US11207331B2, “Agents, compositions and methods for enhancing neurological function” (University of Southern California, priority 2007, dated 2021).

What was measured:
hippocampal neurons = experiment: Expression of cell proliferating markers Ki-67 and cdc2 in hippocampal neurons; format: cell-based, rat
Source text: Expression of cell cycle proteins have been successfully used to evaluate cellular proliferation. One such protein is the nuclear proliferation protein, Ki-67, which is expressed during the G1, S, G2, and M phases of the cell cycle, but is not expressed during the Go (resting) phase. Because Ki-67 antigen has a short half-life, it can be used as a marker of actively proliferating cells. Another cell cycle protein is cell division control protein 2 (cdc2) which is a cyclin dependent kinase (also called CDK1) which plays a crucial role in the G1/S and G2/M phase. If THP induces neuronal proliferation, cell proliferation markers should be elevated.
Hippocampal neurons were treated with THP at a concentration of 250 nM for 72 hours and immunostained with antibodies for the nuclear proliferation marker, ki-67 antigen, which appears yellow. […] The cell cycle protein cdc2 is also observed in a dose dependent fashion (see FIG. 4).
For this experiment, neurons were collected following 24 hrs of THP exposure. Forty μg protein of the total cell lysate was loaded and separated by 12% SDS-gel using antibody (Ahcom) specifically against cdc2- and analyzed using Un-Scan-It image software (Ilk Scientific Corp.).

[1] = THP concentration in plasma and cortex by GC/MS; format: in vivo, mouse
Protocol: Cortices from brain hemisection of mice treated with THP or vehicle were collected at time of sacrifice for measurement of THP by GC/MS. Plasma was also collected at time of sacrifice. Three-month-old male non-Tg and 3×TgAD mice were subcutaneously injected with THP (1, 10, and 20 mg/kg BW) or vehicle (0.1% ethanol in PBS, n=4 in each group). The mice were sacrificed 24 hours later. THP concentration in plasma and brain were measured by GC/MS. […] In the 3×TgAD mouse cortex, a 10 mg/kg dose of THP results in a cortical level of 20 ng/g protein 24 hrs post injection.

In the case of `CC(=O)[C@H]1CC[C@H]2[C@@H]3CC[C@H]4C[C@H](O)CC[C@]4(C)[C@H]3CC[C@]12C` [THP, 3α-hydroxy-5α-pregnan-20-one], the “expression of nuclear proliferation marker Ki-67” value (hippocampal neurons; 250 nM, 72 hours, immunostaining) is reported as “induces the expression of the nuclear proliferation marker Ki-67”, the “expression of cdc2” value (hippocampal neurons; 250 or 500 nM, 24 hrs, Western blot) is reported as “increases expression of cell division control protein 2 (cdc2)” and the “dose dependence of THP in plasma and cortex” value ([1]; 1, 10 and 20 mg/kg BW s.c., 24 hours) is reported as “linear dose dependent manner”. For the same compound, the “cortical level of THP” value ([1]; 3×TgAD mouse cortex, 10 mg/kg s.c., 24 hrs post injection) was 20 ng/g protein and the “THP level in 3×TgAD relative to nontransgenic treated mice” value ([1]; plasma and cortex, 24 hours) was “consistently lower level of THP in both plasma and cortex”.
